Measured values: patent US5252570A, “Amidino and guanidino derivatives” (B.I. Italia, priority 1988, dated 1993)
Structures can show the parent of a compound that is named as a salt. Where two headings read alike, the source gives them in different places.

Molecular target: T1, 5-HT3 receptors (Rattus norvegicus, UniProt P35563)
T1 construct: from tissue; host or cells: whole anesthetized rat (in vivo)
T1 sequence (P35563 24-483): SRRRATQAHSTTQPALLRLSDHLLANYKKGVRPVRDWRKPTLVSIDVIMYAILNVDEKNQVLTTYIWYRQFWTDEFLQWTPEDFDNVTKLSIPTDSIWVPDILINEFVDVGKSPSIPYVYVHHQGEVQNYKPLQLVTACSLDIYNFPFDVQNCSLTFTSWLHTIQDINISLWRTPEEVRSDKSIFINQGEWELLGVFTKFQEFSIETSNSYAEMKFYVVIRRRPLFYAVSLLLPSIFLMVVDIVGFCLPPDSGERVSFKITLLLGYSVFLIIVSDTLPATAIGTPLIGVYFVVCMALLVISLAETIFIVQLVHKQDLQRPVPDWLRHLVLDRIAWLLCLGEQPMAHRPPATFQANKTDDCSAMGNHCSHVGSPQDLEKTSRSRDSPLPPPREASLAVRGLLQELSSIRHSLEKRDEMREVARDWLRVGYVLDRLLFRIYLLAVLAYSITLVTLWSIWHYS
Assay: Bezold-Jarish reflex in anesthetized rats (serotonin-induced bradycardia and hypotension)
Format: in vivo
Conditions: iv, antagonist injected 5 min before serotonin (20 μg/kg i.v.), urethane-anesthetized rats
Source text: As already mentioned hereinbefore the new compounds of formula (I), according to the present invention, have interesting pharmacological properties owing to their ability to antagonize the physiological 5-HT effects at 5-HT3 receptors in warm-blooded animals. Therefore the new compounds are commercially useful in the prevention and in the treatment of disorders wherein 5-HT3 receptors are involved, such as chemotherapy or radiation induced nausea and emesis, migraine, delayed gastric emptying, stress-induced psychological disorders, irritable bowel syndrome, arrhytmia and rhinitis.
Bezold-Jarish Reflex in Anesthetized Rats
Rats (250-275 g) were anesthetized with urethane (1.25 g/kg ip.). The blood pressure and the heart rate were recorded from the left femoral artery by means of a pressure transducer (Statham) connected with a cardiotachometer. The Bezold-Jarish reflex was elicited by rapid intravenous injection of serotonin (20 μg/kg).
Increasing doses of antagonists were injected 5 min. before serotonin to evaluate their effect on the initial bradycardia and associated fall in blood pressure resulting from the reflex vagal stimulation. In other experiments, the right vagus nerve was stimulated with platinum electrodes at 10 V, 10 Hz, 2 msec, (Grass 248 stimulator), to evoke bradycardia. ED50 values were calculated by linear regression analysis of the data expressed as percentage inhibition.

[1] = inhibition of fall in blood pressure, read-out: Hypotension ED50

Structure (SMILES) | ED50 [1] [µg/kg] | ED50 (inhibition of initial bradycardia, read-out: Bradycardia ED50) [µg/kg]
N=CN1[C@@H]2CC[C@H]1C[C@@H](OC(=O)c1cc(Cl)cc(Cl)c1)C2 [Compound 15, endo-(8-Iminomethyl-8-azabicyclo-[3.2.1]oct-3-yl)-3,5-dichlorobenzoate hydrochloride] | 0.5 | 0.2
N=CN1[C@@H]2CC[C@H]1C[C@@H](OC(=O)c1c[nH]c3ccccc13)C2 [Compound 16, endo-8-(Iminomethyl-8-azabicyclo[3.2.1]oct-3-yl)-1H-indol-3-carboxylate hydrochloride] | 0.3 | 
